Experimental data reported in PubChem BioAssay AID1963841 (Molecular Pharmacology Branch, DTP, NCI, 2024).

Test system: 439559-082-T-J2-PDC spheroid viability
Experiment: Anticancer human tumor 439559-082-T-J2-PDC patient-derived colon adenocarcinoma cell line growth inhibition [POLQ]
Details: spheroids with HUVEC and MSC; for IC50: curve of first compound; for viability, T/C: stronger effect = lower value
Summary of the method: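 PDC + HUVEC + MSC complex spheroids; POLQ inhibitors ± partner drugs; top conc. at/near clinical Cmax, else 10 microM (SN-38 1 microM), half-log dilutions; 37 degrees C, 5% CO2.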
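Also: spheroids exposed to compounds for seven days before readout.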
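For viability, T/C in this document: 100% = DMSO vehicle control viability.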

SMILES: CC(=O)O[C@H]1C(=O)[C@@]2(C)[C@H]([C@H](OC(=O)c3ccccc3)[C@]3(O)C[C@H](OC(=O)[C@H](O)[C@@H](NC(=O)c4ccccc4)c4ccccc4)C(C)=C1C3(C)C)[C@]1(OC(C)=O)CO[C@@H]1C[C@@H]2O + COC1C(OC(N)=O)C(O)C(Oc2ccc3c(O)c(NC(=O)c4ccc(O)c(CC=C(C)C)c4)c(=O)oc3c2C)OC1(C)C
- IC50 (second compound 0.0316 µM): 1050 nM
- IC50 (second compound 0.1 µM): 1480 nM
- IC50 (second compound 0.316 µM): 1380 nM
- IC50 (second compound 1 µM): 1500 nM
- IC50 (second compound 3.16 µM): 1280 nM
- IC50 (second compound 10 µM): 1530 nM
- viability, T/C (second compound 0.0316 µM, first compound 0.00949 µM): 87.2%
- viability, T/C (second compound 0.0316 µM, first compound 0.03 µM): 90.8%
- viability, T/C (second compound 0.0316 µM, first compound 0.0949 µM): 78.8%
- viability, T/C (second compound 0.0316 µM, first compound 0.3 µM): 77%
- viability, T/C (second compound 0.0316 µM, first compound 0.949 µM): 49.9%
- viability, T/C (second compound 0.0316 µM, first compound 3 µM): 39.4%
- viability, T/C (second compound 0.1 µM, first compound 0.00949 µM): 90.8%
- viability, T/C (second compound 0.1 µM, first compound 0.03 µM): 88.4%
- viability, T/C (second compound 0.1 µM, first compound 0.0949 µM): 80.6%
- viability, T/C (second compound 0.1 µM, first compound 0.3 µM): 75.3%
- viability, T/C (second compound 0.1 µM, first compound 0.949 µM): 57.1%
- viability, T/C (second compound 0.1 µM, first compound 3 µM): 37.4%
- viability, T/C (second compound 0.316 µM, first compound 0.00949 µM): 93.5%
- viability, T/C (second compound 0.316 µM, first compound 0.03 µM): 89.6%
- viability, T/C (second compound 0.316 µM, first compound 0.0949 µM): 80.4%
- viability, T/C (second compound 0.316 µM, first compound 0.3 µM): 71%
- viability, T/C (second compound 0.316 µM, first compound 0.949 µM): 56.5%
- viability, T/C (second compound 0.316 µM, first compound 3 µM): 37.1%
- viability, T/C (second compound 1 µM, first compound 0.00949 µM): 90.1%
- viability, T/C (second compound 1 µM, first compound 0.03 µM): 87.2%
- viability, T/C (second compound 1 µM, first compound 0.0949 µM): 79.3%
- viability, T/C (second compound 1 µM, first compound 0.3 µM): 73%
- viability, T/C (second compound 1 µM, first compound 0.949 µM): 57.8%
- viability, T/C (second compound 1 µM, first compound 3 µM): 38.5%
- viability, T/C (second compound 3.16 µM, first compound 0.00949 µM): 90.3%
- viability, T/C (second compound 3.16 µM, first compound 0.03 µM): 83.3%
- viability, T/C (second compound 3.16 µM, first compound 0.0949 µM): 82.3%
- viability, T/C (second compound 3.16 µM, first compound 0.3 µM): 69.1%
- viability, T/C (second compound 3.16 µM, first compound 0.949 µM): 53.2%
- viability, T/C (second compound 3.16 µM, first compound 3 µM): 40.4%
- viability, T/C (second compound 10 µM, first compound 0.00949 µM): 90.8%
- viability, T/C (second compound 10 µM, first compound 0.03 µM): 80.1%
- viability, T/C (second compound 10 µM, first compound 0.0949 µM): 80.5%
- viability, T/C (second compound 10 µM, first compound 0.3 µM): 74.8%
- viability, T/C (second compound 10 µM, first compound 0.949 µM): 55%
- viability, T/C (second compound 10 µM, first compound 3 µM): 40.2%

SMILES: COc1cccc2c1C(=O)c1c(O)c3c(c(O)c1C2=O)CC(O)(C(=O)CO)CC3OC1CC(N)C(O)C(C)O1 (centres undefined) + COC1C(OC(N)=O)C(O)C(Oc2ccc3c(O)c(NC(=O)c4ccc(O)c(CC=C(C)C)c4)c(=O)oc3c2C)OC1(C)C
- IC50 (second compound 0.0316 µM): 9870 nM
- IC50 (second compound 0.1 µM): > 10000 nM
- IC50 (second compound 0.316 µM): 6360 nM
- IC50 (second compound 1 µM): 9500 nM
- IC50 (second compound 3.16 µM): 7790 nM
- IC50 (second compound 10 µM): 7690 nM
- viability, T/C (second compound 0.0316 µM, first compound 0.0316 µM): 94.1%
- viability, T/C (second compound 0.0316 µM, first compound 0.1 µM): 102%
- viability, T/C (second compound 0.0316 µM, first compound 0.316 µM): 88.1%
- viability, T/C (second compound 0.0316 µM, first compound 1 µM): 70%
- viability, T/C (second compound 0.0316 µM, first compound 3.16 µM): 64.5%
- viability, T/C (second compound 0.0316 µM, first compound 10 µM): 47.9%
- viability, T/C (second compound 0.1 µM, first compound 0.0316 µM): 105%
- viability, T/C (second compound 0.1 µM, first compound 0.1 µM): 108%
- viability, T/C (second compound 0.1 µM, first compound 0.316 µM): 82.9%
- viability, T/C (second compound 0.1 µM, first compound 1 µM): 68.2%
- viability, T/C (second compound 0.1 µM, first compound 3.16 µM): 59.9%
- viability, T/C (second compound 0.1 µM, first compound 10 µM): 49.6%
- viability, T/C (second compound 0.316 µM, first compound 0.0316 µM): 97.7%
- viability, T/C (second compound 0.316 µM, first compound 0.1 µM): 98.8%
- viability, T/C (second compound 0.316 µM, first compound 0.316 µM): 77.3%
- viability, T/C (second compound 0.316 µM, first compound 1 µM): 70.2%
- viability, T/C (second compound 0.316 µM, first compound 3.16 µM): 59.7%
- viability, T/C (second compound 0.316 µM, first compound 10 µM): 44.3%
- viability, T/C (second compound 1 µM, first compound 0.0316 µM): 98.8%
- viability, T/C (second compound 1 µM, first compound 0.1 µM): 104%
- viability, T/C (second compound 1 µM, first compound 0.316 µM): 84.7%
- viability, T/C (second compound 1 µM, first compound 1 µM): 65.8%
- viability, T/C (second compound 1 µM, first compound 3.16 µM): 56.1%
- viability, T/C (second compound 1 µM, first compound 10 µM): 47.7%
- viability, T/C (second compound 3.16 µM, first compound 0.0316 µM): 104%
- viability, T/C (second compound 3.16 µM, first compound 0.1 µM): 98.9%
- viability, T/C (second compound 3.16 µM, first compound 0.316 µM): 85.2%
- viability, T/C (second compound 3.16 µM, first compound 1 µM): 66.4%
- viability, T/C (second compound 3.16 µM, first compound 3.16 µM): 61.8%
- viability, T/C (second compound 3.16 µM, first compound 10 µM): 46.2%
- viability, T/C (second compound 10 µM, first compound 0.0316 µM): 95.3%
- viability, T/C (second compound 10 µM, first compound 0.1 µM): 105%
- viability, T/C (second compound 10 µM, first compound 0.316 µM): 85.9%
- viability, T/C (second compound 10 µM, first compound 1 µM): 67.5%
- viability, T/C (second compound 10 µM, first compound 3.16 µM): 61.4%
- viability, T/C (second compound 10 µM, first compound 10 µM): 45.4%
